Assays:
Assay type in all cases: cell-based
SW480 colon cancer cells = assay: Cell viability assay (CellTiter-Blue); conditions: Homo sapiens; for EC50: 96 h, SW480 cell viability, four days, CellTiter-Blue; for inhibition at 10 µM: given where EC50 >10 μM, SW480 viability, read-out: percent inhibition at 10 μM
Method in brief: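 SW480 cells (~2×10^3 per well) were exposed to compound for four days at 37 °C/5% CO2, using 8-point 1:3 dilutions from 10 μM to 0.0045 μM in duplicate. Viability was read by resazurin reduction (CellTiter-Blue, ~3 h, Ex 560/Em 590 nm). EC50 came from non-linear regression; above 10 μM, percent inhibition at 10 μM is given.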

IL-6 (THP-1 cells) = assay: IL-6 inhibition in LPS-stimulated THP-1 cells (HTRF); conditions: Homo sapiens; for EC50: THP-1 cells, LPS 500 ng/mL, 22 hours, IL6 HTRF
Method in brief: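 THP-1 cells, pre-cultured 24 h in 1% FBS, were preincubated 2 h with compound over a 10-point 1:3 series from 10 μM (0.1% DMSO). They were then stimulated with 500 ng/mL LPS for 22 h at 37° C. IL-6 was read by HTRF 665/620 nm ratio, and EC50 was fitted by four-parameter regression against DMSO; above 10 μM, % inhibition at 10 μM is given.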

[1] = test system: Wnt activity (Sp5-Luc reporter, SW480 colon carcinoma cells); assay: Wnt activity screening assay: Sp5-Luc reporter gene assay in SW480 cells; conditions: Homo sapiens; for EC50: SW480 cells, overnight incubation; for inhibition at 10 µM: given where EC50 >10 μM, SW480, read-out: percent inhibition at 10 μM
Method in brief: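 SW480 cells stably carrying Sp5-Luc reporter (eight TCF/LEF sites) plated at 4,000/well in 1% FBS medium with compound (10-point 1:3 series from 10 μM, 0.1% DMSO) overnight at 37 °C. BrightGlo luminescence normalized to DMSO; EC50 by four-parameter fit, else % inhibition at 10 μM.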

| SMILES | EC50 (SW480 colon cancer cells) [µM] | inhibition at 10 µM (SW480 colon cancer cells) [%] | EC50 (IL-6 (THP-1 cells)) [µM] | inhibition at 10 µM (IL-6 (THP-1 cells); at 10 μM, given where EC50 >10 μM, THP-1, IL6, read-out: percent inhibition at 10 μM) [%] | EC50 [1] [µM] | inhibition at 10 µM [1] [%] |
| --- | --- | --- | --- | --- | --- | --- |
| CN1CCN(c2ccnc3[nH]c(-c4n[nH]c5ccc(-c6cn[nH]c6)nc45)cc23)CC1 [Compound 635, 3-(4-(4-Methylpiperazin-1-yl)-1H-pyrrolo[2,3-b]pyridin-2-yl)-5-(1H-pyrazol-4-yl)-1H-pyrazolo[4,3-b]pyridine] | > 10 | 13.3 | > 10 | 8.4 | > 10 | 13.4 |
| Cn1cc(-c2ccc3[nH]nc(-c4cc5cccnc5[nH]4)c3n2)cn1 [Compound 652, 5-(1-Methyl-1H-pyrazol-4-yl)-3-(1H-pyrrolo[2,3-b]pyridin-2-yl)-1H-pyrazolo[4,3-b]pyridine] | > 10 | 29.2 | 0.046 |  | 2.26 |  |
| O=C(CC1CCNCC1)Nc1cncc(-c2ccc3[nH]nc(-c4cc5c(-c6ccoc6)ccnc5[nH]4)c3n2)c1 [Compound 689, N-(5-(3-(4-(Furan-3-yl)-1H-pyrrolo[2,3-b]pyridin-2-yl)-1H-pyrazolo[4,3-b]pyridin-5-yl)pyridin-3-yl)-2-(piperidin-4-yl)acetamide] | > 10 | 9.2 | 3.34 |  | > 10 | 10.9 |
| c1csc(-c2ccnc3[nH]c(-c4n[nH]c5ccc(-c6cncc(OC7CCCCC7)c6)nc45)cc23)c1 [Compound 703, 5-(5-(Cyclohexyloxy)pyridin-3-yl)-3-(4-(thiophen-2-yl)-1H-pyrrolo[2,3-b]pyridin-2-yl)-1H-pyrazolo[4,3-b]pyridine] | > 10 | 52.9 | 0.303 |  | 3.64 |  |
| c1csc(-c2ccnc3[nH]c(-c4n[nH]c5ccc(-c6cncc(OC7CCNCC7)c6)nc45)cc23)c1 [Compound 704, 5-(5-(Piperidin-4-yloxy)pyridin-3-yl)-3-(4-(thiophen-2-yl)-1H-pyrrolo[2,3-b]pyridin-2-yl)-1H-pyrazolo[4,3-b]pyridine] | > 10 | 49.5 | 0.106 |  | 3.71 |  |

Reference: patent US10206909B2, “3-(1H-pyrrolo[2,3-B]pyridin-2-yl)-1H-pyrazolo[4,3-B]pyridines and therapeutic uses thereof” (Samumed, LLC, priority 2015, dated 2019)
